Test results reported in paper PMC10815991, “Membrane-Bound Redox Enzyme Cytochrome bd-I Promotes Carbon Monoxide-Resistant Escherichia coli Growth and Respiration” (International Journal of Molecular Sciences, 2024).
Where two headings read alike, the source gives them in different places.

How the values were obtained:
cytochrome bd-I heme d2+ = settings: fully reduced form of the CO-bound enzyme; cited from earlier work
[1] = molecular target: T1, cytochrome bd-I (bd-I-only E. coli membranes) (Escherichia coli, UniProt P0ABJ9); assay: O2 reductase activity of isolated bd-I-containing membranes; format: biochemical
T1 construct: the oxidases were in vivo conditions, i.e., integrated into native bacterial membranes; endogenous in cells; host or cells: E. coli TBE037 (MG1655 ΔappB nuoB cyoB::kan); whole cells (A1) or membranes isolated from them (A5)
Procedure: (§1) To isolate membranes from E. coli respiratory mutants expressing only one terminal quinol oxidase (cytochrome bd-I or cytochrome bd-II or cytochrome bo3), cell cultures were grown in LB medium until an OD600 of about 2 was reached. The cells were then pelleted by centrifugation at 10,000 rpm for 10 min and washed twice in 20 mM TRIS pH 8.3 containing 0.5 mM EDTA and 5 mM MgSO4. The cells were resuspended in the same buffer containing 1 mg/mL lysozyme and incubated for two hours on ice. A spatula tip of DNAse and RNase was then added, and the cells were lysed by sonication. Cell debris was removed by centrifugation at 15,000 rpm for 10 min. Membrane fractions were collected and stored at −80 °C. The protein content was determined using the Bradford method, using the Bradford reagent (Sigma) with bovine serum albumin as standard.
(§2) Oxygraphic measurements were performed at 25 °C in 50 mM K/phosphate pH 7.0, using a high-resolution respirometer (Oxygraph-2k, Oroboros Instruments GmbH, Innsbruck, Austria) equipped with two 1.5-mL chambers. The O2 consumption of E. coli cells was followed with endogenous reductants. In the case of isolated membranes, O2 consumption was measured in the presence of 2.5 mM dithiothreitol (DTT) and 2.5 μM 2,3-dimethoxy-5-methyl-6-(3-methyl-2-butenyl)-1,4-benzoquinone (Q1), an artificial reducing couple specific for quinol oxidases. […]

[2] = molecular target: T2, cytochrome bd-II (bd-II-only E. coli cells) (Escherichia coli, UniProt P26459); set-up: method as in PMID 37515940; settings: [O2] = 150 μM; cited from earlier work
T2 construct: the oxidases were in vivo conditions, i.e., integrated into native bacterial membranes; endogenous in cells; host or cells: E. coli TBE026 (MG1655 ΔcydB nuoB cyoB::kan); whole cells (A2) or membranes isolated from them (A6)

[3] = molecular target: T3, cytochrome bd-I (bd-I-only E. coli cells) (Escherichia coli, UniProt P0ABJ9); assay: O2 consumption (aerobic respiration) of bd-I-only E. coli cell suspensions; format: cell-based
T3 construct: the oxidases were in vivo conditions, i.e., integrated into native bacterial membranes; endogenous in cells; host or cells: E. coli TBE037 (MG1655 ΔappB nuoB cyoB::kan); whole cells (A1) or membranes isolated from them (A5)
Procedure: (§3) The CO and N2 gases were purchased from Linde (Danbury, CT, USA) and Air Liquide (Air Liquide Italia Spa, Milano, Italy), respectively. Other chemicals were purchased from Merck KGaA (Darmstadt, Germany). A stock solution of CO or N2 was prepared by equilibrating degassed water with the pure gas at 1 atm and room temperature, yielding 1 mM CO and 0.7 mM N2 in solution. E. coli respiratory mutant strains TBE025 (MG1655 ΔcydB nuoB appB::kan), TBE026 (MG1655 ΔcydB nuoB cyoB::kan), and TBE037 (MG1655 ΔappB nuoB cyoB::kan), which respectively express cytochrome bo3, cytochrome bd-II, or cytochrome bd-I as the sole terminal oxidase, were used. E. coli cultures were grown in Luria–Bertani (LB) medium supplemented with 30 μg/mL kanamycin, at 37 °C and 200 rpm. In the case of growth studies, after inoculation at an OD600 of 0.15 ± 0.03, the cells were grown in 50 mL rubber-stoppered flasks in 16 mL of air-equilibrated LB at 37 °C for 60 min; when OD600 reached 0.4 ± 0.08, they were bubbled for 30 s with either CO (pure gas at 1 atm and room temperature) or N2 (pure gas at 1 atm and room temperature) as a control to yield a final concentration of both gases of ~20%. The gas percentage was assessed by taking into account the different O2 concentrations, present in equal volumes of LB equilibrated with air or flushed with CO/N2 for 30 s, and calculated according to the following equation: Gas % = ([O2] air equilibrated − [O2] gas flushed)/[O2] air equilibrated × 100. [O2] air equilibrated and [O2] gas flushed are the O2 concentration values measured in the degassed chamber of a high-resolution respirometer (Oxygraph-2k, Oroboros Instruments GmbH, Innsbruck, Austria) of non-fluxed and fluxed E. coli cultures with CO or N2, respectively. The growth of the E. coli cultures was then monitored via a standard method using optical density measurements in an Eppendorf BioSpectrometer basic at 600 nm every 30 min. When the OD600 was above 1, cultures were diluted before reading.
Oxygraphic measurements were performed at 25 °C in 50 mM K/phosphate pH 7.0, using a high-resolution respirometer (Oxygraph-2k, Oroboros Instruments GmbH, Innsbruck, Austria) equipped with two 1.5-mL chambers. […] In the case of isolated membranes, O2 consumption was measured in the presence of 2.5 mM dithiothreitol (DTT) and 2.5 μM 2,3-dimethoxy-5-methyl-6-(3-methyl-2-butenyl)-1,4-benzoquinone (Q1), an artificial reducing couple specific for quinol oxidases. The catalytic O2-consuming activity was obtained by subtracting the non-enzymatic O2 consumption (Q1/DTT autoxidation in the absence of the membranes) from the O2 consumption rate measured after the addition of membranes.
UV–visible absorption spectra were recorded to estimate the amount of each terminal oxidase present in cell suspensions. […]

[4] = system: E. coli mutant strain expressing cytochrome bd-I as the sole terminal oxidase; assay: Cell growth (OD600) of bd-I-only strain in presence of CO; format: cell-based, Escherichia coli; settings: ~20% CO added at 60 min after start of growth in air, vs ~20% N2 control
Procedure: as §3, with “E. coli cultures were grown in Luria–Bertani (LB) medium supplemented with 30 μg/mL kanamycin, at 37 °C and 200 rpm. In the case of growth studies, after inoculation at an OD600 of 0.15 ± 0.03, the cells were grown in 50 mL rubber-stoppered flasks in 16 mL of air-equilibrated LB at 37 °C for 60 min; when OD600 reached 0.4 ± 0.08, they were bubbled for 30 s with either CO (pure gas at 1 atm and room temperature) or N2 (pure gas at 1 atm and room temperature) as a control to yield a final concentration of both gases of ~20%.” left out, “When the OD600 was above 1, cultures were diluted before reading.” left out

[5] = molecular target: T4, cytochrome bd-II (bd-II-only E. coli membranes) (Escherichia coli, UniProt P26459); assay: O2 reductase activity of isolated bd-II-containing membranes; format: biochemical
T4 construct: the oxidases were in vivo conditions, i.e., integrated into native bacterial membranes; endogenous in cells; host or cells: E. coli TBE026 (MG1655 ΔcydB nuoB cyoB::kan); whole cells (A2) or membranes isolated from them (A6)
Procedure: as §1, §2

[6] = system: E. coli mutant strain expressing cytochrome bd-II as the sole terminal oxidase; assay: Cell growth (OD600) of bd-II-only strain in presence of CO; format: cell-based, Escherichia coli; settings: ~20% CO added at 60 min after start of growth in air, vs ~20% N2 control
Procedure: as §3, with “E. coli cultures were grown in Luria–Bertani (LB) medium supplemented with 30 μg/mL kanamycin, at 37 °C and 200 rpm. In the case of growth studies, after inoculation at an OD600 of 0.15 ± 0.03, the cells were grown in 50 mL rubber-stoppered flasks in 16 mL of air-equilibrated LB at 37 °C for 60 min; when OD600 reached 0.4 ± 0.08, they were bubbled for 30 s with either CO (pure gas at 1 atm and room temperature) or N2 (pure gas at 1 atm and room temperature) as a control to yield a final concentration of both gases of ~20%.” left out, “When the OD600 was above 1, cultures were diluted before reading.” left out

[7] = molecular target: T2, cytochrome bd-II (bd-II-only E. coli cells); assay: O2 consumption (aerobic respiration) of bd-II-only E. coli cell suspensions; format: cell-based; settings: for IC50: read-out: apparent IC50
Procedure: as §3
Oxygraphic measurements were performed at 25 °C in 50 mM K/phosphate pH 7.0, using a high-resolution respirometer (Oxygraph-2k, Oroboros Instruments GmbH, Innsbruck, Austria) equipped with two 1.5-mL chambers. The O2 consumption of E. coli cells was followed with endogenous reductants. In the case of isolated membranes, O2 consumption was measured in the presence of 2.5 mM dithiothreitol (DTT) and 2.5 μM 2,3-dimethoxy-5-methyl-6-(3-methyl-2-butenyl)-1,4-benzoquinone (Q1), an artificial reducing couple specific for quinol oxidases. The catalytic O2-consuming activity was obtained by subtracting the non-enzymatic O2 consumption (Q1/DTT autoxidation in the absence of the membranes) from the O2 consumption rate measured after the addition of membranes.
UV–visible absorption spectra were recorded to estimate the amount of each terminal oxidase present in cell suspensions. For this purpose, an Agilent Cary 60 UV-Vis or a Varian Cary 300 Bio UV-Visible spectrophotometer was used.
Data analysis was carried out using software packages Origin v7.0 (OriginLab Corporation, Northampton, MA, USA) and GIM (Scientific Graphic Interactive Management System developed by A.L. Drachev in Lomonosov Moscow State University). The percentage inhibition of O2 consumption of cell suspensions (i%) was calculated using the equation i% = ((V0 − V0,i)/V0)·100, where V0 and V0,i are the initial rates in the absence and in the presence of the inhibitor (CO), respectively. The apparent IC50 values of cytochromes bd-II and bo3 for CO were estimated by plotting i% as a function of CO concentration added ([CO]0). The data were fitted to the standard hyperbolic equation i% = imax%·[CO]0/(IC50 + [CO]0) using a built-in approximation function (‘Hyperbola function’) in ‘Advanced Fitting tool’ in the Origin program. The imax% parameter is a theoretical maximum percent inhibition. […]

[8] = 196.3 μM CO added at [O2] = 50 μM
[9] = 196.3 μM CO added at [O2] = 100 μM
[10] = 196.3 μM CO added at [O2] = 200 μM

T2 sequence (P26459 whole entry): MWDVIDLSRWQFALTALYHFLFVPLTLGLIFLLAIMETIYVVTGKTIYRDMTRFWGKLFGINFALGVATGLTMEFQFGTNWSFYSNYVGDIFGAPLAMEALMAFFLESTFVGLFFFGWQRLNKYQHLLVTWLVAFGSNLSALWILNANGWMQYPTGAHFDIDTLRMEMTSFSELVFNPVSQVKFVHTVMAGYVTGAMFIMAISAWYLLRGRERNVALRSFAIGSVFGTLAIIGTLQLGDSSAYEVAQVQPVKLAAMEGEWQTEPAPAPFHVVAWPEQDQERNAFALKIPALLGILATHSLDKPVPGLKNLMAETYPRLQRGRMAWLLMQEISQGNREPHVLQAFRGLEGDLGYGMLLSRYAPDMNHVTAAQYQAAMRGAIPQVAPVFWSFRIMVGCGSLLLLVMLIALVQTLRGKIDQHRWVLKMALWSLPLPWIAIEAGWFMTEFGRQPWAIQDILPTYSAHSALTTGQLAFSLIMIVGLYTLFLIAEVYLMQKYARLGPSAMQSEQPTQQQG
T2 sequence (P26458 whole entry partner): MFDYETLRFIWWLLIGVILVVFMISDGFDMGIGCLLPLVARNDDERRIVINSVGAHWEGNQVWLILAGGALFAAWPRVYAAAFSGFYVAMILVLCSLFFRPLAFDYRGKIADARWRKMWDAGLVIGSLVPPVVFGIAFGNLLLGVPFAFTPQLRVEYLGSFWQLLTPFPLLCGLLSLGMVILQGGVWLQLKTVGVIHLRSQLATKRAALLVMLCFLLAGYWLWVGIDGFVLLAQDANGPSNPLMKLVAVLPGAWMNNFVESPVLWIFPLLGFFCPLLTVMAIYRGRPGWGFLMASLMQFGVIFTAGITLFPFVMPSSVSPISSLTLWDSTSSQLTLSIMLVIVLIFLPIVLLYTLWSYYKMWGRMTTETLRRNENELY
T2 sequence (P24244 whole entry partner): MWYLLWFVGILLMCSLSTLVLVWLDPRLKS
T3 sequence (P0ABJ9 whole entry): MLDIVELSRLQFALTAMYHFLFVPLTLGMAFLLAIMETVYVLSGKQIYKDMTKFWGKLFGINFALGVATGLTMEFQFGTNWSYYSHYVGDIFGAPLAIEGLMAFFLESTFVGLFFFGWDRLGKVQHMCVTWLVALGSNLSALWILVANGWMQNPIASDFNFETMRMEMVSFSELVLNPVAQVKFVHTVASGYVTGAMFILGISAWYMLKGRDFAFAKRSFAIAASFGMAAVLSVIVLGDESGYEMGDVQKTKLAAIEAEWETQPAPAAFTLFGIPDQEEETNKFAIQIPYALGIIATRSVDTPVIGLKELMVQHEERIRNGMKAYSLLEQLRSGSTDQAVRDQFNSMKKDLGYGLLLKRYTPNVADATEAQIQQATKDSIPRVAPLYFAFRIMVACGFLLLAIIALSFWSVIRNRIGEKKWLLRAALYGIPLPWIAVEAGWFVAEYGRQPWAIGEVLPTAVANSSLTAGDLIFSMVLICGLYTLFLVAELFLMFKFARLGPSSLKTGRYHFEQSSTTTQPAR
T3 sequence (P0ABK2 whole entry partner): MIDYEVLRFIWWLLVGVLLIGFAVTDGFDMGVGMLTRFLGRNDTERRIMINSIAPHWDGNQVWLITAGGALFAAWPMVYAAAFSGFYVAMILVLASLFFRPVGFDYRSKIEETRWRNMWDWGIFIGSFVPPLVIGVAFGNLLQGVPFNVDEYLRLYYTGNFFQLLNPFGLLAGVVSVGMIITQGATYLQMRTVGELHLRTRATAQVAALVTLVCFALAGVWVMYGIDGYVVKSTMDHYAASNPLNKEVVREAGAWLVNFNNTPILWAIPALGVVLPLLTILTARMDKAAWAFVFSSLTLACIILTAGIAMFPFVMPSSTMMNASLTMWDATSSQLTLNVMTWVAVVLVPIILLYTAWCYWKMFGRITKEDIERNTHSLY
T3 sequence (P56100 whole entry partner): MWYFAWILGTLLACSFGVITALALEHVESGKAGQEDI
T3 sequence (A5A618 whole entry partner): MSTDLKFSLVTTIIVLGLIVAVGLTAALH
T4 sequence (P26459 whole entry): as the sequence (P26459 whole entry) above
T4 sequence (P26458 whole entry partner): as the sequence (P26458 whole entry partner) above
T4 sequence (P24244 whole entry partner): as the sequence (P24244 whole entry partner) above
T1 sequence (P0ABJ9 whole entry): as the sequence (P0ABJ9 whole entry) above
T1 sequence (P0ABK2 whole entry partner): as the sequence (P0ABK2 whole entry partner) above
T1 sequence (P56100 whole entry partner): as the sequence (P56100 whole entry partner) above

Q: Which “koff, dissociation of CO from the oxidase” value (cytochrome bd-I heme d2+) does the source give for `[C-]#[O+]` [CO, Carbon monoxide] here?
A: 6.0 ± 0.2 s⁻¹

Q: What about the “CO inhibition of O2 reductase activity of membranes” value [1] of the same compound?
A: relatively resistant to inhibition by CO

Q: And the IC50 [2]?
A: 187 ± 11.1 µM

Q: What about the “inhibition of O2 consumption” value ([3]; 96.3 μM CO added at [O2] = 100 μM, bd-I-only cells) of the same compound?
A: 11.6 ± 1.1%

Q: And the “maximum inhibition percentage of respiration” value (“maximum inhibition percentage” below) [3, 8]?
A: 39.6 ± 4.5%

Q: And the “maximum inhibition percentage” value [3, 9]?
A: 18.0 ± 7.8%

Q: What about the “maximum inhibition percentage” value [3, 10] of the same compound?
A: 9.7 ± 4.9%

Q: What about the “effect on cell growth” value [4] of the same compound?
A: a minimal effect on cell growth was observed

Q: What about the “CO inhibition of O2 reductase activity of membranes” value [5] of the same compound?
A: effectively inhibits

Q: And the “effect on cell growth” value [6]?
A: severely impaired

Q: What about the “inhibition of O2 consumption” value ([7]; 96.3 μM CO added at [O2] = 100 μM, bd-II-only cells) of the same compound?
A: 43.3 ± 7.6%

Q: What about the “maximum inhibition percentage” value [7, 8] of the same compound?
A: 59.3 ± 11.5%

Q: What about the “maximum inhibition percentage” value [7, 9] of the same compound?
A: 50.0 ± 3.6%

Q: What about the “maximum inhibition percentage” value [7, 10] of the same compound?
A: 47.0 ± 6.0%

Q: What about the IC50 ([7]; CO added at [O2] = 50 μM) of the same compound?
A: 88.6 ± 9.3 µM

Q: What about the IC50 ([7]; CO added at [O2] = 100 μM) of the same compound?
A: 170 ± 15 µM

Q: What about the IC50 ([7]; CO added at [O2] = 200 μM) of the same compound?
A: 230 ± 12 µM
